# US20240158348A1, “HERBICIDAL CYCLIC AMIDES N-SUBSTITUTED WITH A HALOALKYLSULFONYLANILIDE GROUP” (FMC Corporation, priority 2021, published 2024)
# Assays:
# Assay type in all cases: in vivo
# [1] = tested on: blackgrass (Alopecurus myosuroides); test: Test C preemergence, blackgrass; details: 0 is no effect, 100 is complete control
# From the text: (§1) Seeds of plant species selected from blackgrass (Alopecurus myosuroides), corn (Zea mays), foxtail, giant (giant foxtail, Setaria faberi), goosegrass (Eleusine indica), kochia (Bassia scoparia), oat, wild (wild oat, Avena fatua), pigweed, palmer (palmer amaranth, Amaranthus palmeri), ragweed (common ragweed, Ambrosia artemisiifolia), ryegrass, Italian (Italian ryegrass, Lolium multiflorum), soybean (Glycine max) and wheat (Triticum aestivum) were planted into a blend of loam soil and sand and treated preemergence with a directed soil spray using test chemicals formulated in a non-phytotoxic solvent mixture which included a surfactant.
# (§2) At the same time, plants selected from these crop and weed species and also galium (catchweed bedstraw, Galium aparine) and horseweed (Erigeron canadensis) were planted in pots containing the same blend of loam soil and sand and treated with postemergence applications of test chemicals formulated in the same manner. Plants ranged in height from 2 to 10 cm and were in the one- to two-leaf stage for the postemergence treatment. Treated plants and untreated controls were maintained in a greenhouse for 10 or 12 days, after which time all treated plants were compared to untreated controls and visually evaluated for injury. Plant response ratings, summarized in Table A, are based on a 0 to 100 scale where 0 is no effect and 100 is complete control. A dash (-) response means no test result.
# [2] = tested on: corn (Zea mays); test: Test C preemergence, corn; details: 0 is no effect, 100 is complete control
# From the text: as §1, §2
# [3] = tested on: foxtail, giant (giant foxtail, Setaria faberi); test: Test C preemergence, giant foxtail; details: 0 is no effect, 100 is complete control
# From the text: as §1, §2
# [4] = tested on: goosegrass (Eleusine indica); test: Test C preemergence, goosegrass; details: 0 is no effect, 100 is complete control
# From the text: as §1, §2
# [5] = tested on: kochia (Bassia scoparia); test: Test C preemergence, kochia; details: 0 is no effect, 100 is complete control
# From the text: as §1, §2
# [6] = tested on: oat, wild (wild oat, Avena fatua); test: Test C preemergence, wild oat; details: 0 is no effect, 100 is complete control
# From the text: as §1, §2
# [7] = tested on: pigweed, palmer (palmer amaranth, Amaranthus palmeri); test: Test C preemergence, palmer amaranth; details: 0 is no effect, 100 is complete control
# From the text: as §1, §2
# [8] = tested on: ragweed (common ragweed, Ambrosia artemisiifolia); test: Test C preemergence, ragweed; details: 0 is no effect, 100 is complete control
# From the text: as §1, §2
# [9] = tested on: ryegrass, Italian (Italian ryegrass, Lolium multiflorum); test: Test C preemergence, Italian ryegrass; details: 0 is no effect, 100 is complete control
# From the text: as §1, §2
# [10] = tested on: soybean (Glycine max); test: Test C preemergence, soybean; details: 0 is no effect, 100 is complete control
# From the text: as §1, §2
# [11] = tested on: wheat (Triticum aestivum); test: Test C preemergence, wheat; details: 0 is no effect, 100 is complete control
# From the text: as §1, §2
# [12] = tested on: blackgrass (Alopecurus myosuroides); test: Test C postemergence, blackgrass; details: 31 g ai/ha Postemergence; visual injury, 0 to 100 scale (0 no effect, 100 complete control)
# From the text: as §1, §2
# [13] = tested on: corn (Zea mays); test: Test C postemergence, corn
# From the text: as §1, §2
# [14] = tested on: foxtail, giant (giant foxtail, Setaria faberi); test: Test C postemergence, giant foxtail
# From the text: as §1, §2
# [15] = tested on: goosegrass (Eleusine indica); test: Test C postemergence, goosegrass
# From the text: as §1, §2
# [16] = tested on: kochia (Bassia scoparia); test: Test C postemergence, kochia
# From the text: as §1, §2
# [17] = tested on: oat, wild (wild oat, Avena fatua); test: Test C postemergence, wild oat
# From the text: as §1, §2
# [18] = tested on: pigweed, palmer (palmer amaranth, Amaranthus palmeri); test: Test C postemergence, palmer amaranth; details: visual injury, 0 to 100 scale (0 no effect, 100 complete control)
# From the text: as §1, §2
# [19] = tested on: ragweed (common ragweed, Ambrosia artemisiifolia); test: Test C postemergence, ragweed; details: visual injury, 0 to 100 scale (0 no effect, 100 complete control)
# From the text: as §1, §2
# [20] = tested on: ryegrass, Italian (Italian ryegrass, Lolium multiflorum); test: Test C postemergence, Italian ryegrass; details: visual injury, 0 to 100 scale (0 no effect, 100 complete control)
# From the text: as §1, §2
# [21] = tested on: soybean (Glycine max); test: Test C postemergence, soybean; details: visual injury, 0 to 100 scale (0 no effect, 100 complete control)
# From the text: as §1, §2
# [22] = tested on: wheat (Triticum aestivum); test: Test C postemergence, wheat; details: visual injury, 0 to 100 scale (0 no effect, 100 complete control)
# From the text: as §1, §2
# [23] = tested on: galium (catchweed bedstraw, Galium aparine); test: Test C postemergence, galium
# From the text: as §1, §2
# [24] = tested on: barnyardgrass (Echinochloa crusgalli); test: Test D flooded paddy test, barnyardgrass; parameters: key: 0 = no effect, 100 = complete control; details: 250 g ai/ha, Flood; applied to paddy water at 2-leaf stage; visual rating after 13 days; scale 0 (no effect) to 100 (complete control)
# Protocol: (§3) Plant species in the flooded paddy test selected from barnyardgrass (Echinochloa crusgalli), ducksalad (Heteranthera limosa), rice (Oryza sativa), and sedge, umbrella (small-flower umbrella sedge, Cyperus difformis) were grown to the 2-leaf stage for testing. At time of treatment, test pots were flooded to 3 cm above the soil surface, treated by application of test compounds directly to the paddy water, and then maintained at that water depth for the duration of the test. Treated plants and controls were maintained in a greenhouse for 13 days, after which time all species were compared to controls and visually evaluated. Plant response ratings, summarized in Table B, are based on a scale of 0 to 100 where 0 is no effect and 100 is complete control. A dash (-) response means no test result.
# [25] = tested on: ducksalad (Heteranthera limosa); test: Test D flooded paddy test, ducksalad; parameters: key: 0 = no effect, 100 = complete control; details: 250 g ai/ha, Flood; applied to paddy water at 2-leaf stage; visual rating after 13 days; scale 0 (no effect) to 100 (complete control)
# Protocol: as §3
# [26] = tested on: rice (Oryza sativa); test: Test D flooded paddy test, rice; parameters: key: 0 = no effect, 100 = complete control; details: 250 g ai/ha, Flood; applied to paddy water at 2-leaf stage; visual rating after 13 days; scale 0 (no effect) to 100 (complete control)
# Protocol: as §3
# [27] = tested on: sedge, umbrella (small-flower umbrella sedge, Cyperus difformis); test: Test D flooded paddy test, umbrella sedge; parameters: key: 0 = no effect, 100 = complete control; details: 250 g ai/ha, Flood; applied to paddy water at 2-leaf stage; visual rating after 13 days; scale 0 (no effect) to 100 (complete control)
# Protocol: as §3
# [28] = tested on: blackgrass (Alopecurus myosuroides); test: Test C postemergence, blackgrass; details: 125 g ai/ha Postemergence; 0 is no effect, 100 is complete control
# [29] = 31 g ai/ha Postemergence, visual injury, 0 to 100 scale (0 no effect, 100 complete control)
# [30] = 125 g ai/ha Postemergence, 0 is no effect, 100 is complete control
compound,measurement,setting,value
"Cc1cc(C)c(N2CCC(OC3CC3)C2=O)cc1NS(=O)(=O)C(F)(F)F (single isomer, unassigned) [Compound 30]","Plant response rating (0 to 100 scale), Blackgrass",[1]; 31 g ai/ha Preemergence,80
same,"Plant response rating (0 to 100 scale), Blackgrass",[1]; 125 g ai/ha Preemergence,100
same,"Plant response rating (0 to 100 scale), Corn",[2]; 31 g ai/ha Preemergence,90
same,"Plant response rating (0 to 100 scale), Corn",[2]; 125 g ai/ha Preemergence,90
same,"Plant response rating (0 to 100 scale), Foxtail, Giant",[3]; 31 g ai/ha Preemergence,100
same,"Plant response rating (0 to 100 scale), Foxtail, Giant",[3]; 125 g ai/ha Preemergence,100
same,"Plant response rating (0 to 100 scale), Goosegrass",[4]; 31 g ai/ha Preemergence,90
same,"Plant response rating (0 to 100 scale), Goosegrass",[4]; 125 g ai/ha Preemergence,100
same,"Plant response rating (0 to 100 scale), Kochia",[5]; 31 g ai/ha Preemergence,90
same,"Plant response rating (0 to 100 scale), Kochia",[5]; 125 g ai/ha Preemergence,100
same,"Plant response rating (0 to 100 scale), Oat, Wild",[6]; 31 g ai/ha Preemergence,80
same,"Plant response rating (0 to 100 scale), Oat, Wild",[6]; 125 g ai/ha Preemergence,100
same,"Plant response rating (0 to 100 scale), Pigweed, Palmer",[7]; 31 g ai/ha Preemergence,100
same,"Plant response rating (0 to 100 scale), Pigweed, Palmer",[7]; 125 g ai/ha Preemergence,100
same,"Plant response rating (0 to 100 scale), Ragweed",[8]; 31 g ai/ha Preemergence,100
same,"Plant response rating (0 to 100 scale), Ragweed",[8]; 125 g ai/ha Preemergence,100
same,"Plant response rating (0 to 100 scale), Ryegrass, Italian",[9]; 31 g ai/ha Preemergence,100
same,"Plant response rating (0 to 100 scale), Ryegrass, Italian",[9]; 125 g ai/ha Preemergence,100
same,"Plant response rating (0 to 100 scale), Soybean",[10]; 31 g ai/ha Preemergence,80
same,"Plant response rating (0 to 100 scale), Soybean",[10]; 125 g ai/ha Preemergence,90
same,"Plant response rating (0 to 100 scale), Wheat",[11]; 31 g ai/ha Preemergence,90
same,"Plant response rating (0 to 100 scale), Wheat",[11]; 125 g ai/ha Preemergence,100
same,Blackgrass plant response rating,[12],50
same,Corn plant response rating,[13]; [29],90
same,"Plant response rating (0 to 100 scale), Corn",[13]; [30],90
same,"Foxtail, Giant plant response rating",[14]; [29],50
same,"Plant response rating (0 to 100 scale), Foxtail, Giant",[14]; [30],80
same,Goosegrass plant response rating,[15]; [29],80
same,"Plant response rating (0 to 100 scale), Goosegrass",[15]; [30],90
same,Kochia plant response rating,[16]; [29],80
same,"Plant response rating (0 to 100 scale), Kochia",[16]; [30],90
same,"Oat, Wild plant response rating",[17]; [29],50
same,"Plant response rating (0 to 100 scale), Oat, Wild",[17]; [30],80
same,"Pigweed, Palmer plant response rating",[18]; 31 g ai/ha Postemergence,60
same,"Pigweed, Palmer plant response rating",[18]; 125 g ai/ha Postemergence,90
same,Ragweed plant response rating,[19]; 31 g ai/ha Postemergence,90
same,Ragweed plant response rating,[19]; 125 g ai/ha Postemergence,90
same,"Ryegrass, Italian plant response rating",[20]; 31 g ai/ha Postemergence,90
same,"Ryegrass, Italian plant response rating",[20]; 125 g ai/ha Postemergence,100
same,Soybean plant response rating,[21]; 31 g ai/ha Postemergence,50
same,Soybean plant response rating,[21]; 125 g ai/ha Postemergence,60
same,Wheat plant response rating,[22]; 31 g ai/ha Postemergence,70
same,Wheat plant response rating,[22]; 125 g ai/ha Postemergence,70
same,Galium plant response rating,[23]; [29],80
same,"Plant response rating (0 to 100 scale), Galium",[23]; [30],100
same,"Plant response rating, Barnyardgrass",[24],95
same,"Plant response rating, Ducksalad",[25],90
same,"Plant response rating, Rice",[26],75
same,"Plant response rating, Sedge, Umbrella",[27],98
same,"Plant response rating (0 to 100 scale), Blackgrass",[28],90
